Structures are written as SMILES.

One may read the IC50 as the concentration at which inhibition is half-maximal.

One experiment deals with T1, mTOR kinase (Homo sapiens, UniProt P42345).
T1 construct: purchased Millipore, US
The experiment can be described thus: mTOR kinase TR-FRET assay. The class given is biochemical. The method, boiled down:
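TR-FRET with ULight-p70 S6K (Thr 389) peptide (50 nM) and 20 μM ATP in 50 mM HEPES pH 7.5, 1 mM EGTA, 3 mM MnCl2; compound pre-incubated with enzyme before substrate addition, reaction at rt, EDTA-stopped. Eu anti-phospho antibody read 665/615 nm; IC50 from sigmoidal dose-response fit.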
A general note: TR-FRET usually uses a lanthanide donor and a delayed reading to cut background.

A further experiment relates to pERK in A375 cells. Description: In Cell Western (ICW) assay, pERK in A375 cells. To be noted: Homo sapiens, A-375, 3 h treatment. It is filed as cell-based. The essentials: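 After a 3 h compound treatment at 37 °C, fixed RKO or A375 cells were probed for phospho-ERK1/2 (T202/Y204), phospho-S6RP or phospho-AKT T308 and detected with a Eu-tagged anti-rabbit antibody (ex 340/em 615 nm), with Hoechst signal as the cell-number correction. Inhibition was referenced to DMSO, and IC50 values came from sigmoidal dose-response curves.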

The target of the next experiment is T2, PI3Kα (Homo sapiens, UniProt P42336).
T2 construct: made in house; host or cells: SF9 cells
T2 sequence (P42336 whole entry, species assumed): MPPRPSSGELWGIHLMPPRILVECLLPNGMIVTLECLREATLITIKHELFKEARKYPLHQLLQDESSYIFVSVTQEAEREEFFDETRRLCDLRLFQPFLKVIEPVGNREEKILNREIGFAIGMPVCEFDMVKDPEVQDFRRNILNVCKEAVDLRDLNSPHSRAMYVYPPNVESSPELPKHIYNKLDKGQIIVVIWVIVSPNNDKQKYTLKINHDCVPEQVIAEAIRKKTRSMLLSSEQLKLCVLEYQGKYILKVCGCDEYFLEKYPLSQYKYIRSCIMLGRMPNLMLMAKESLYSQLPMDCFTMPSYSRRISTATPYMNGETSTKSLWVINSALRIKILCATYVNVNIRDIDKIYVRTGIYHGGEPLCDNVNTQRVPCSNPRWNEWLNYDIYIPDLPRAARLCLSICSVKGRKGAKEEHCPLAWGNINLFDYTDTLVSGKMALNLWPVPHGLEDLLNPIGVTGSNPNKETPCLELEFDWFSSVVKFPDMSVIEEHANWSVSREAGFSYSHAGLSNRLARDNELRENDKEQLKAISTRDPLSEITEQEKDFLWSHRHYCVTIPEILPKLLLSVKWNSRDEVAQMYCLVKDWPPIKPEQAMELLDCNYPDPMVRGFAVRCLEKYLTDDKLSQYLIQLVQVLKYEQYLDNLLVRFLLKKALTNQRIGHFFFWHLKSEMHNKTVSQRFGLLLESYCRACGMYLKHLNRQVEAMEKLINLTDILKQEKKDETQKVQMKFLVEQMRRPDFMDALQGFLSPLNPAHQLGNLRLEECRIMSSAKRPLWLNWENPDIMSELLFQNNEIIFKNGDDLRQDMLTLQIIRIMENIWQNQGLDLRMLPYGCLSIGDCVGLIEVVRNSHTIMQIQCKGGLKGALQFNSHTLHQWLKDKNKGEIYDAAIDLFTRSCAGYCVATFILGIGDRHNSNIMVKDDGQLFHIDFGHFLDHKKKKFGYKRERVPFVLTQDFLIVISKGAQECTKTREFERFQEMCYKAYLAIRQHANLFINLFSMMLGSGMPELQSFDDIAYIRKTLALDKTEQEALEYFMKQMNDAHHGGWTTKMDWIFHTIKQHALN
T2 sequence (P27986 whole entry partner, species assumed): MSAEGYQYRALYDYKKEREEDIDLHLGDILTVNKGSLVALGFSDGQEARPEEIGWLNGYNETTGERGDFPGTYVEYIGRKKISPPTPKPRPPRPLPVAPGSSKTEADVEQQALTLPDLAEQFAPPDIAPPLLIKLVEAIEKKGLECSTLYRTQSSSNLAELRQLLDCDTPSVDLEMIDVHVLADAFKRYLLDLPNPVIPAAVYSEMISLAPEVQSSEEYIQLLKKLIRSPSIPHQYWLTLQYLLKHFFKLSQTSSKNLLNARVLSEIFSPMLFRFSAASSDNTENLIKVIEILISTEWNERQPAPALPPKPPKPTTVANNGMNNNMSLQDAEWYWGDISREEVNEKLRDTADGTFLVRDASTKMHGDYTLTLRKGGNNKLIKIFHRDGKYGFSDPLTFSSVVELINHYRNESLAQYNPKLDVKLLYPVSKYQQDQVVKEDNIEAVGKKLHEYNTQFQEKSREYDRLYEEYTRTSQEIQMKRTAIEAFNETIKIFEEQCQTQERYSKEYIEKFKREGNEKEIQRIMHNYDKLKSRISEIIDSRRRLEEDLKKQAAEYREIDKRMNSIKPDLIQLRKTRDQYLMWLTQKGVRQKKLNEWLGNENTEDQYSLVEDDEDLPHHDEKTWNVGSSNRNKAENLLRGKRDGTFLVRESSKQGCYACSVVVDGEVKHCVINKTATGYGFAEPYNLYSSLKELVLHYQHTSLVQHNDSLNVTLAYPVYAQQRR
Description: PI3 Kinase alpha TR-FRET assay. The class given is biochemical. The method, boiled down:
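Purified Sf9-expressed p110/p85α (5 ng) was pre-incubated with compound and PIP2 at rt, then ATP was added (PIP2 and ATP both 40 μM) for a 30 min reaction. PIP3 was detected by TR-FRET displacement of biotin-PIP3, and IC50 was taken from dose-response curves of the 665/615 nm emission ratio.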

T1 sequence (P42345 1362-2549 limits assumed): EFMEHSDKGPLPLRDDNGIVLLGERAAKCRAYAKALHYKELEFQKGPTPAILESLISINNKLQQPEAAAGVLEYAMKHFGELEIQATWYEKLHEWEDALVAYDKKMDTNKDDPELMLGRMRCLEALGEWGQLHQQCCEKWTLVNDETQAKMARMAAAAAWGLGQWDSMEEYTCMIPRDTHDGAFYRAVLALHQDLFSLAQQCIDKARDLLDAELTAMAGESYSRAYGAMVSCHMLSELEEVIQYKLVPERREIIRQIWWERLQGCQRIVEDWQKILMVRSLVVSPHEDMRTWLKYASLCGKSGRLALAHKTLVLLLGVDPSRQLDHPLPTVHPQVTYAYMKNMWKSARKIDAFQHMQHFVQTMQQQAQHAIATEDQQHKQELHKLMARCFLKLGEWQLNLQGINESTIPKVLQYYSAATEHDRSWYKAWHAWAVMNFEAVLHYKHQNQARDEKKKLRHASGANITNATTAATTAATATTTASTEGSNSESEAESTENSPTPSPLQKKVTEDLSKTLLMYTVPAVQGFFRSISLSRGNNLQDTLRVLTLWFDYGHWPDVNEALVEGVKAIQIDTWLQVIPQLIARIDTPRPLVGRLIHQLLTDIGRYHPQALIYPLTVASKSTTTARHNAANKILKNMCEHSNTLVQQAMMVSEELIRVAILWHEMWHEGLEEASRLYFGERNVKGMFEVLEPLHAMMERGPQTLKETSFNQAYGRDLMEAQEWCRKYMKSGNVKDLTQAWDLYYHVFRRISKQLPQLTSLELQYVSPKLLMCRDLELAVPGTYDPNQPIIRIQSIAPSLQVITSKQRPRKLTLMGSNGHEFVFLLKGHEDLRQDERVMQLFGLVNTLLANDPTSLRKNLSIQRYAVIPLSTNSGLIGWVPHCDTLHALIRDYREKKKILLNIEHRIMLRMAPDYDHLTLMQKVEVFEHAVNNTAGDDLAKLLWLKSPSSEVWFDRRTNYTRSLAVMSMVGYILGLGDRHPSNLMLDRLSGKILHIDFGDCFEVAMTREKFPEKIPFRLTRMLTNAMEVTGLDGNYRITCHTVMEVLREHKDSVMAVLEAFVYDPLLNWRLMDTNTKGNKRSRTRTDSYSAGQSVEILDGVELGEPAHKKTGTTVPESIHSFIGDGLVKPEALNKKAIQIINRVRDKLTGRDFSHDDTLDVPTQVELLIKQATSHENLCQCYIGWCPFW

For the compound `Nc1ccc(-c2nc(N3CCOCC3)c3nc(-c4cccc(NS(=O)(=O)CCCF)c4F)ccc3n2)cn1` [Example 88, N-(3-(2-(6-aminopyridin-3-yl)-4-morpholinopyrido[3,2-d]pyrimidin-6-yl)-2-fluorophenyl)-3-fluoropropane-1-sulfonamide], the IC50 lay in the range of 1 to 100 nM on mTOR kinase, 100 to 1000 nM with pERK in A375 cells and 1 to 100 nM against PI3Kα.
For the compound `C[C@@H]1COCCN1c1nc(-c2cnc(N)nc2)nc2ccc(-c3cccc(NS(=O)(=O)CCCF)c3F)nc12` [Example 97, (R)-N-(3-(2-(2-aminopyrimidin-5-yl)-4-(3-methylmorpholino)pyrido[3,2-d]pyrimidin-6-yl)-2-fluorophenyl)-3-fluoropropane-1-sulfonamide], the IC50 at mTOR kinase lay within 100 to 1000 nM; in the experiment on pERK in A375 cells, 1 to 100 nM; against PI3Kα, 1 to 100 nM.
With `Cc1cc(-c2cccc(NS(=O)(=O)CCCF)c2F)cc2c(N3CCOCC3)nc(-c3cnc(N)nc3)nc12` [Example 116, N-(3-(2-(2-aminopyrimidin-5-yl)-8-methyl-4-morpholinoquinazolin-6-yl)-2-fluorophenyl)-3-fluoropropane-1-sulfonamide], the IC50 against mTOR kinase is 100 to 1000 nM; with pERK in A375 cells it was 1 to 100 nM; against PI3Kα it was 100 to 1000 nM.
As for `COc1cc(-c2c(F)ccc(NS(=O)(=O)CCCF)c2F)cc2c(N3CCOCC3)nc(-c3ccc(N)nc3)nc12` [Example 79, N-(3-(2-(6-aminopyridin-3-yl)-8-methoxy-4-morpholinoquinazolin-6-yl)-2,4-difluorophenyl)-3-fluoropropane-1-sulfonamide], the IC50 is 1 to 100 nM against mTOR kinase, 1 to 100 nM in the experiment with pERK in A375 cells and 100 to 1000 nM against PI3Kα.
On to `Cc1cc(N)ncc1-c1nc(N2CCOCC2)c2nc(-c3cccc(NS(=O)(=O)CCCF)c3F)ccc2n1` [Example 101, N-(3-(2-(6-amino-4-methylpyrtdin-3-yl)-4-morpholinopyrldo[3,2-d]pyrimidin-6-yl)-2-fluorophenyl)-3-fluoropropane-1-sulfonamide], for which the results for the concentration for half-maximal inhibition (IC50) against mTOR kinase, in the experiment on pERK in A375 cells and against PI3Kα were 100 to 1000 nM, 1 to 100 nM and 1 to 100 nM, respectively.
On to `O=S(=O)(CCCF)Nc1cccc(-c2ccc3nc(-c4ccc(NCCO)nc4)nc(N4CCOCC4)c3n2)c1F` [Example 99, 3-fluoro-N-(2-fluoro-3-(2-(6-((2-hydroxyethyl)amino)pyridin-3-yl)-4-morpholinopyrido[3,2-d]pyrimidin-6-yl)phenyl)propane-1-sulfonamide], for which the figures for the IC50 on mTOR kinase, in the experiment on pERK in A375 cells and on PI3Kα were 1 to 100 nM, 1 to 100 nM and 100 to 1000 nM, respectively.
Consider `COc1cc(-c2cccc(NS(=O)(=O)CCCF)c2F)cc2c(N3CCOC[C@H]3C)nc(-c3cnc(N)nc3)nc12` [Example 43, (R)-N-(3-(2-(2-aminopyrimidin-5-yl)-8-methoxy-4-(3-methylmorpholino)quinazolin-6-yl)-2-fluorophenyl)-3-fluoropropane-1-sulfonamide], for which the figures for the IC50 against mTOR kinase, in the experiment on pERK in A375 cells and against PI3Kα were 1 to 100 nM, 1 to 100 nM and 100 to 1000 nM, respectively.
As for `Nc1cc(C(F)(F)F)c(-c2nc(N3CCOCC3)c3nc(-c4cccc(NS(=O)(=O)CCCF)c4F)ccc3n2)cn1` [Example 94, N-(3-(2-(6-amino-4-(trifluoromethyl)pyridin-3-yl)-4-morpholinopyrido[3,2-d]pyrimidin-6-yl)-2-fluorophenyl)-3-fluoropropane-1-sulfonamide], the IC50 against mTOR kinase, with pERK in A375 cells and against PI3Kα was 1 to 100 nM throughout.
For the compound `C[C@@H]1COCCN1c1nc(-c2ccc(N)nc2)nc2ccc(-c3cccc(NS(=O)(=O)CCCF)c3F)nc12` [Example 96, (R)-N-(3-(2-(6-aminopyridin-3-yl)-4-(3-methylmorpholino)pyrido[3,2-d]pyrimidin-6-yl)-2-fluorophenyl)-3-fluoropropane-1-sulfonamide], the IC50 against mTOR kinase lay within 100 to 1000 nM; in the experiment on pERK in A375 cells, 1 to 100 nM; on PI3Kα it was 100 to 1000 nM.
As for `CNC(=O)Nc1ccc(-c2nc(N3CCOCC3)c3cc(-c4cccc(NS(=O)(=O)CCCF)c4F)cc(OC)c3n2)cn1` [Example 39, 3-fluoro-N-(2-fluoro-3-(8-methoxy-2-(6-(3-methylureido)pyridin-3-yl)-4-morpholinoquinazolin-6-yl)phenyl)propane-1-sulfonamide], the IC50 fell in the range of 1 to 100 nM against mTOR kinase, 1 to 100 nM in the experiment on pERK in A375 cells and 100 to 1000 nM at PI3Kα.
Turning to `CCCS(=O)(=O)Nc1cccc(-c2ccc3nc(-c4ccc(N)nc4)nc(N4CCOCC4)c3n2)c1F` [Example 86, N-(3-(2-(6-aminopyridin-3-yl)-4-morpholinopyrido[3,2-d]pyrimidin-6-yl)-2-fluorophenyl)propane-1-sulfonamide], the IC50 against mTOR kinase was 1 to 100 nM; in the experiment on pERK in A375 cells, 100 to 1000 nM; against PI3Kα, 1 to 100 nM.
For the compound `O=S(=O)(CCCF)Nc1cccc(-c2ccc3nc(-c4ccc(NCCCO)nc4)nc(N4CCOCC4)c3n2)c1F` [Example 111, 3-fluoro-N-(2-fluoro-3-(2-(6-((3-hydroxypropyl)amino)pyridin-3-yl)-4-morpholinopyrido[3,2-d]pyrimidin-6-yl)phenyl)propane-1-sulfonamide], the IC50 was in the range of 1 to 100 nM on mTOR kinase, 100 to 1000 nM in the experiment with pERK in A375 cells and 100 to 1000 nM against PI3Kα.
Regarding `COc1cc(-c2cccc(NS(=O)(=O)CCCF)c2F)cc2c(N3CCOC[C@H]3C)nc(-c3cnc(N)cc3F)nc12` [Example 135, (R)-N-(3-(2-(6-amino-4-fluoropyridin-3-yl)-8-methoxy-4-(3-methylmorpholino)quinazolin-6-yl)-2-fluorophenyl)-3-fluoropropane-1-sulfonamide], the results for the IC50 at mTOR kinase, in the experiment on pERK in A375 cells and at PI3Kα were 1 to 100 nM, 1 to 100 nM and 1000 to 10000 nM, respectively.
Regarding `Nc1cc(F)c(-c2nc(N3CCOCC3)c3nc(-c4cccc(NS(=O)(=O)CCCF)c4F)ccc3n2)cn1` [Example 102, N-(3-(2-(6-amino-4-fluoropyridin-3-yl)-4-morpholinopyrido[3,2-d]pyrimidin-6-yl)-2-fluorophenyl)-3-fluoropropane-1-sulfonamide], the values for the IC50 against mTOR kinase, with pERK in A375 cells and on PI3Kα were 1 to 100 nM, 100 to 1000 nM and 1 to 100 nM, respectively.
Consider `Nc1cc(C(F)(F)F)c(-c2nc(N3CCOCC3)c3nc(-c4cccc(NS(=O)(=O)c5c(F)cccc5F)c4F)ccc3n2)cn1` [Example 106, N-(3-(2-(6-amino-4-(trifluoromethyl)pyridin-3-yl)-4-morpholinopyrido[3,2-d]pyrimidin-6-yl)-2-fluorophenyl)-2,6-difluorobenzenesulfonamide], for which the values for the IC50 on mTOR kinase, with pERK in A375 cells and against PI3Kα were 1 to 100 nM, 1000 to 10000 nM and 1 to 100 nM, respectively.
As for `Nc1ncc(-c2nc(N3CCOCC3)c3nc(-c4cccc(NS(=O)(=O)c5cc(F)ccc5F)c4F)ccc3n2)cn1` [Example 93, N-(3-(2-(2-aminopyrimidin 5-yl)-4-morpholinopyrido[3,2-d]pyrimidin-6-yl)-2-fluorophenyl)-2,5-difluorobenzenesulfonamide], the IC50 against mTOR kinase was 100 to 1000 nM; in the experiment with pERK in A375 cells, 100 to 1000 nM; on PI3Kα it was 1 to 100 nM.
Regarding `C[C@H]1COCCN1c1nc(-c2cnc(N)cc2F)nc2ccc(-c3cccc(NS(=O)(=O)CCCF)c3F)nc12` [Example 129, (S)-N-(3-(2-(6-amino-4-fluoropyridin-3-yl)-4-(3-methylmorpholino)pyrido[3,2-d]pyrimidin-6-yl)-2-fIuorophenyl)-3-fluoropropane-1-sulfonamide], the IC50 lay in the range of 1 to 100 nM against mTOR kinase, 100 to 1000 nM with pERK in A375 cells and 1 to 100 nM on PI3Kα.
As to `COc1cc(-c2cccc(NS(=O)(=O)CCCF)c2F)cc2c(N3CCOC[C@H]3C)nc(-c3cnc(N)c(F)c3)nc12` [Example 134, (R)-N-(3-(2-(6-amino-5-fluoropyridin-3-yl)-8-methoxy-4-(3-methylmorpholino)quinazolin-6-yl)-2-fluorophenyl)-3-fluoropropane-1-sulfonamide], the IC50 was in the range of 1 to 100 nM against mTOR kinase, 1 to 100 nM in the experiment on pERK in A375 cells and 1000 to 10000 nM against PI3Kα.
As to `C[C@H]1COCCN1c1nc(-c2cnc(N)cc2C(F)(F)F)nc2ccc(-c3cccc(NS(=O)(=O)CCCF)c3F)nc12` [Example 108, (S)-N-(3-(2-(6-amino-4-(trifluoromethyl)pyrldin-3-yl)-4-(3-methylmorpholino)pyrido[3,2-d]pyrimidin-6-yl)-2-fluorophenyl)-3-fluoropropane-1-sulfonamide], the IC50 against mTOR kinase is 100 to 1000 nM; with pERK in A375 cells, 1 to 100 nM; at PI3Kα it was 1 to 100 nM.
For the compound `Nc1ncc(-c2nc(N3CCOCC3)c3cc(-c4cccc(NS(=O)(=O)CCCF)c4F)cc(N4CCOCC4)c3n2)cn1` [Example 69, N-(3-(2-(2-aminopyrimidin-5-yl)-4,8-dimorpholinoquinazolin-6-yl)-2-fluorophenyl)-3-fluoropropane-1-sulfonamide], the concentration for half-maximal inhibition (IC50) on mTOR kinase is 1 to 100 nM; in the experiment with pERK in A375 cells, 1 to 100 nM; against PI3Kα, 100 to 1000 nM.
Turning to `CCCS(=O)(=O)Nc1cccc(-c2ccc3nc(-c4cnc(N)nc4)nc(N4CCOCC4)c3n2)c1F` [Example 7, N-(3-(2-(2-aminopyrimidin-5-yl)-4-morpholinopyrido[3,2-d]pyrimidin-6-yl)-2-fluorophenyl)propane-1-sulfonamide], the IC50 against mTOR kinase was in the range of 100 to 1000 nM; with pERK in A375 cells, 100 to 1000 nM; on PI3Kα it was 1 to 100 nM.

Source of the values: US9499495B2, “Quinazolines and azaquinazolines as dual inhibitors of RAS/RAF/MEK/ERK and PI3K/AKT/PTEN/mTOR pathways” (Asana Biosciences, LLC, priority 2013, dated 2016).
